Test [1] relates to Colorado Potato Beetle (CPB, Leptinotarsa decemlineata). The experiment in a line: Colorado Potato Beetle dipping bioassay (foliar method) with potato plants. Format: in vivo. Particulars: for Activity against CPB by potato plant dipping assay / Feeding damage protection of potato plants, Feeding Protection (%) / Feeding damage protection of potato plants (%), Control corrected: 100 ppm; for Feeding damage protection of potato plants, Feeding Protection (%) / Feeding damage protection of potato plants (%), Control corrected / mortality at 100 ppm: leaf dipping, 2nd instar CPB, 5 days after infest; for mortality at 100 ppm: Leptinotarsa decemlineata, foliar, 120 h. An excerpt: 2. Method: Colorado Potato Beetle (CPB, Leptinotarsa decemlineata) Dipping Bioassay (Foliar Method) with Potato Plants Serial dilutions of TGAI are made in 50:50 (acetone: H2O) 0.01% kinetic solvent solution. Potato plant true leaves are snipped off the plant, treated by dipping method in a bowl with acetone-resistant plastic liner and inserted into a glass flask filled with water of the stem part to prevent dehydration of the leaves. Leaves are air-dried in hood, and transferred to petri dishes preset with a filter paper soaked with 2.5 ml water. The leaves are infested with five 2nd instar CPB per dish. 6 replicates/treatment and one rate (100 ppm)/test analog. Petri dishes are held for 5 days after infest at a […], 50% RH and 14/10 light/dark cycle in walk-in chamber. Both plant feeding damage and mortality of CPB were evaluated.

Test [2] concerns Colorado Potato beetle, Leptinotarsa decimlineata. Description: Field trial, foliar application on potato, feeding damage assessment. Type of test: in vivo. The text has this:
1. Potato-Colorado Potato Beetle, Leptinotarsa decimlineata:
Foliar application: Field trials were set up. The plots were laid out in 5-meter rows with 4 replications. Applications of Compound I-R-1 was done. Feeding damage assessments were taken at 6, 15 and 20 days after application for the entire plot.

Where [3] appears, read: control corrected, read-out: Mortality of CPB (%), Control corrected.
Where [4] appears, read: read-out: Mortality of CPB, Mortality (%).

Read-outs that look alike come from different tables or passages of the source.

On to `C[n+]1c([O-])c(-c2ccccc2)c(=O)n2c1SCC2c1cnc(Cl)s1` (racemic) [Compound (I)], for which, in test [1], the “Activity against CPB by potato plant dipping assay” value (“Activity against CPB” for short) was “active” and the “Feeding damage protection of potato plants, Feeding Protection (%)” value worked out at 89.17%. Moreover, the “Feeding damage protection of potato plants (%), Control corrected” value in test [1] (control corrected) is on record as 88.60%. Further, the mortality (commonly the percentage killed) at 100 ppm in test [1] (setting [3]) stood at 56.7%. Besides, in test [1] (setting [4]), the mortality at 100 ppm was 56.7%.
For `C[n+]1c([O-])c(-c2ccccc2)c(=O)n2c1SC[C@@H]2c1cnc(Cl)s1` [Compound (I-R-1)], in test [2] (foliar application (Table 2)), the “Efficacy against L. decimlineata as foliar application in terms of reduction in feeding damage” value was “good efficacy”. Moreover, in test [2] (foliar treatment, 60 g ai/ha, 6 days after application, entire plot), the “Feeding damage (%) A06” value is 6.5%. Further, in test [2] (foliar treatment, 60 g ai/ha, 15 days after application, entire plot), the “Feeding damage (%) A15” value is given as 5.0%. Further, the “Feeding damage (%) A20” value in test [2] (foliar treatment, 60 g ai/ha, 20 days after application, entire plot) was 8.0%. For the same molecule, in test [1], the “Activity against CPB” value is given as “active” and the “Feeding damage protection of potato plants, Feeding Protection (%)” value is 90.83%. In addition, the “Feeding damage protection of potato plants (%), Control corrected” value in test [1] (control corrected) was determined as 90.40%. In test [1] (setting [3]), the mortality at 100 ppm turned out to be 80%. Besides, the mortality at 100 ppm in test [1] (setting [4]) was 80%.
With `C[n+]1c([O-])c(-c2ccccc2)c(=O)n2c1CCC2c1cnc(Cl)s1` (stereo not drawn) [Compound C-6, reference compound], the “Activity against CPB” value in test [1] was “inactive”. Also, the “Feeding damage protection of potato plants, Feeding Protection (%)” value in test [1] was 11.67%. For the same molecule, the “Feeding damage protection of potato plants (%), Control corrected” value in test [1] (control corrected) came out at 7.00%. Further, the mortality at 100 ppm in test [1] (setting [3]) and in test [1] (setting [4]) was 0% in each case.
As for `C[n+]1c([O-])c(-c2ccccc2)c(=O)n2c1OCC2c1cnc(Cl)s1` (stereo not drawn) [Compound C-19, reference compound], the “Activity against CPB” value in test [1] was “inactive”. The “Feeding damage protection of potato plants, Feeding Protection (%)” value in test [1] was 5.00%. The “Feeding damage protection of potato plants (%), Control corrected” value in test [1] (control corrected) is recorded as 0.00%. Moreover, the mortality at 100 ppm in test [1] (setting [3]) and in test [1] (setting [4]) was 3.33% throughout.
